Results: patent US9957270B2, “Fused pyrimidine-based hydroxamate derivatives” (Agency for Science, Technology and Research, priority 2014, dated 2018)
pIC50: −log10 of the molar value.

What was measured:
[1] = Microsomal stability, human liver microsomes
Description: (§1) GIBIO pooled human liver microsomes (HLM) (Cat # HMMCPL), mouse liver microsomes (MLM) (Cat # BCMCPL), and rat liver microsomes (RLM) (Cat # RTMCPL) were purchased from Life Technologies. […] Samples are incubated for 30, 45, or 60 min. Reaction is terminated with ice-cold acetonitrile 0.3% formic acid. Samples are subsequently centrifuged at 4° C. for 15 min at 20,000×g. The supernatant is analysed by LC-MS.
(§2) Compound in vitro metabolic stability was assayed using liver microsomes (LM) at 0.5 mg/mL of proteins, incubated for 30 min (mouse, MLM), 45 min (rat, RLM), 30 or 45 min (human, HLM). % of remaining parent compound was measured using LC-MS.

[2] = Microsomal stability, rat liver microsomes
Description: as §1, §2

[3] = tested on: MCF7; assay: Anti-proliferative assay (cellular IC50), MCF7; conditions: Homo sapiens, MCF7, 72 h, read-out: In Vitro Cellular IC50 MCF7
[4] = tested on: PC-3; assay: Anti-proliferative assay (cellular IC50), PC-3; conditions: Homo sapiens, PC-3, 72 h, read-out: In Vitro Cellular IC50 PC-3
[5] = target: HDAC (HeLa nuclear extracts); assay: HDAC enzyme assay, HeLa nuclear extracts; conditions: read-out: In Vitro Enzymatic IC50 HDAC (HeLa)
[6] = tested on: COLO 205; assay: cells; conditions: Homo sapiens, COLO 205, 72 h, read-out: In Vitro Cellular IC50 COLO 205
[7] = tested on: MV-4-11; assay: cells; conditions: Homo sapiens, MV4-11, 72 h, read-out: In Vitro Cellular IC50 MV-4-11
[8] = target: T1, HDAC6 (Homo sapiens, UniProt Q9UBN7); assay: HDAC enzyme assay, recombinant HDAC6
T1 sequence (Q9UBN7 1-1215): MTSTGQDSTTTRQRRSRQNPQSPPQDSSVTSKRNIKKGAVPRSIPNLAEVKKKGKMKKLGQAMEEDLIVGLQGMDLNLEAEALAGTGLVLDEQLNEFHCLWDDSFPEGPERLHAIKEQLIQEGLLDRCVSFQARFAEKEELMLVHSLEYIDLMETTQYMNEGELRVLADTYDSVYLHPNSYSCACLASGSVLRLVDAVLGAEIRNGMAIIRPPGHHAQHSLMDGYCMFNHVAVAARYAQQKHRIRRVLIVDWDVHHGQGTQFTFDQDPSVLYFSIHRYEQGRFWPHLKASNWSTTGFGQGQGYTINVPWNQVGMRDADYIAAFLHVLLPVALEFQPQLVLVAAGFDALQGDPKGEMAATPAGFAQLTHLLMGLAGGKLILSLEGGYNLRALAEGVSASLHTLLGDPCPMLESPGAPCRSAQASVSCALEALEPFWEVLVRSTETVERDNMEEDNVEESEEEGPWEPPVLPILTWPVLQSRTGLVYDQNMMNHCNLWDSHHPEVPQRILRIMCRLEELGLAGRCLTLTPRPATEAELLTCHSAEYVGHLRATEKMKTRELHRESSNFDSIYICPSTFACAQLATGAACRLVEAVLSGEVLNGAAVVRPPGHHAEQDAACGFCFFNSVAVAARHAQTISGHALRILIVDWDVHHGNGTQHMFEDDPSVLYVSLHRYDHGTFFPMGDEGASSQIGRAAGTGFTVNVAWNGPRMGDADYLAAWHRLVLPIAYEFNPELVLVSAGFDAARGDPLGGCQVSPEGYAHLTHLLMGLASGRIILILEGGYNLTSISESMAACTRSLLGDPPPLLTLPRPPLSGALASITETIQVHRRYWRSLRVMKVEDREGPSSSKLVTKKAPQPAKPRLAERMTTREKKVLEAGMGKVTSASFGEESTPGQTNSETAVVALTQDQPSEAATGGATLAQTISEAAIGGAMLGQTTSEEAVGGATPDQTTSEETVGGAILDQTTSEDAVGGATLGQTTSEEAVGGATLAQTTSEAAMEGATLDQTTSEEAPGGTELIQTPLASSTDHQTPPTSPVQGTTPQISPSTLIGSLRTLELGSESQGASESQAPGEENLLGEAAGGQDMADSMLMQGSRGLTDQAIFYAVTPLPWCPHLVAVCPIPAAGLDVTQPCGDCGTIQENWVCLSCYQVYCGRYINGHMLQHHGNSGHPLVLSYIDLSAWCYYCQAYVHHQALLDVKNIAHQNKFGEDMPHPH

[9] = target: HDAC1 (Homo sapiens, UniProt Q13547); assay: HDAC enzyme assay, recombinant HDAC1
[10] = target: T2, PI3Kα (Homo sapiens, UniProt P42336); assay: Kinase enzyme assay (ADP-Glo), PI3Kα; type: biochemical; conditions: read-out: In Vitro Enzymatic IC50 PI3Kα
T2 construct: purchased Invitrogen, or BPS Bioscience Inc., or SignalChem PV4788 / 40620 / P27-18H

[11] = tested on: HepG2; assay: Anti-proliferative assay (cellular IC50), HepG2; conditions: Homo sapiens, HepG2, 72 h, read-out: In Vitro Cellular IC50 HepG2
[12] = tested on: HCT 116; assay: cells; conditions: Homo sapiens, HCT-116, 72 h, read-out: In Vitro Cellular IC50 HCT 116
[13] = tested on: MOLT-4; assay: Anti-proliferative assay (cellular IC50), MOLT-4; conditions: Homo sapiens, MOLT-4, 72 h, read-out: In Vitro Cellular IC50 MOLT-4
[14] = tested on: K-562; assay: Anti-proliferative assay (cellular IC50), K-562; conditions: Homo sapiens, K562, 72 h, read-out: In Vitro Cellular IC50 K-562
[15] = Microsomal stability, mouse liver microsomes
Description: as §1, §2

[16] = human, microsomes, 0.75 h, 5 μM, pH 7.4
[17] = rat, microsomes, 0.75 h, 5 μM, pH 7.4
[18] = mouse, microsomes, 0.5 h, 5 μM, pH 7.4

Chain of HDAC1 (Q13547 whole entry): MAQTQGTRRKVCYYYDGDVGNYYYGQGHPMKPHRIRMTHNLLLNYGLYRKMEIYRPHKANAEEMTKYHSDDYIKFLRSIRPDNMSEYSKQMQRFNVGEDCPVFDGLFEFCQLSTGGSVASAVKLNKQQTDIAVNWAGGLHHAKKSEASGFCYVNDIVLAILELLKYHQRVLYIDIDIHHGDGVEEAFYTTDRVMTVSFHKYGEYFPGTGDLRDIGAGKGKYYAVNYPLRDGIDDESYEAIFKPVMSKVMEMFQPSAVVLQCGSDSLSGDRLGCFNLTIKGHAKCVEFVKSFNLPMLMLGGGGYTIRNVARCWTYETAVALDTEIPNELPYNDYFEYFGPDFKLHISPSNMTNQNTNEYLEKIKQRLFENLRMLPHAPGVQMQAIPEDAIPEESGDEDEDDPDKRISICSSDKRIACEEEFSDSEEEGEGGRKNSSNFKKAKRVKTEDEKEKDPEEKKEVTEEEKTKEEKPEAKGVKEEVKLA
T2 sequence (P42336 whole entry): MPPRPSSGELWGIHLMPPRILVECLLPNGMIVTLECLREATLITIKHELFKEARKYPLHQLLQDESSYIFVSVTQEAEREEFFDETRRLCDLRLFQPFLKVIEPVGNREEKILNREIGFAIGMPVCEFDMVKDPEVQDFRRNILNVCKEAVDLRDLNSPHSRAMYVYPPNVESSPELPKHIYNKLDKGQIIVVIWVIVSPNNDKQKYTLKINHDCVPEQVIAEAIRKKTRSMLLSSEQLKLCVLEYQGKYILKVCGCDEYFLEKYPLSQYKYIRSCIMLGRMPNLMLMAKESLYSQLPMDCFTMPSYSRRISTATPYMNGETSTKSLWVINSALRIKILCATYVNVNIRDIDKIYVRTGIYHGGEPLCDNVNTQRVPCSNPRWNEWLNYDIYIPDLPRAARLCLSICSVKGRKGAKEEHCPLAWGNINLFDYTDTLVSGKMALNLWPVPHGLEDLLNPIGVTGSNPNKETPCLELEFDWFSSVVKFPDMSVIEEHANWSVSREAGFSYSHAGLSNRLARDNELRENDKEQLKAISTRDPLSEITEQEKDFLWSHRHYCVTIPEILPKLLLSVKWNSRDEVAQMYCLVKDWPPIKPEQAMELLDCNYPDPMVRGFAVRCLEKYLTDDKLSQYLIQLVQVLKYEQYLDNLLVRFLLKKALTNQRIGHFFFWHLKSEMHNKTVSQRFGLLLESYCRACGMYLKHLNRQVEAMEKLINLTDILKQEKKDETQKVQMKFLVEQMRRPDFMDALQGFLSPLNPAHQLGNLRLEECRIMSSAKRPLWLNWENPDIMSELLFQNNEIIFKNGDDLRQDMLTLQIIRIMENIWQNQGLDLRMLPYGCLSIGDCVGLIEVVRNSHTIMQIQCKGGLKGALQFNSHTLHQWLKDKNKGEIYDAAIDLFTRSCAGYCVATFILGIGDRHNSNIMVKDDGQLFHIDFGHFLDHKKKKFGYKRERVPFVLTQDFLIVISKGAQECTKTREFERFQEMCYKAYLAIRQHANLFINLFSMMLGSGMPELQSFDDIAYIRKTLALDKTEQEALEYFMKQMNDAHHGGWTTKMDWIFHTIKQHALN
T2 sequence (P27986 whole entry partner): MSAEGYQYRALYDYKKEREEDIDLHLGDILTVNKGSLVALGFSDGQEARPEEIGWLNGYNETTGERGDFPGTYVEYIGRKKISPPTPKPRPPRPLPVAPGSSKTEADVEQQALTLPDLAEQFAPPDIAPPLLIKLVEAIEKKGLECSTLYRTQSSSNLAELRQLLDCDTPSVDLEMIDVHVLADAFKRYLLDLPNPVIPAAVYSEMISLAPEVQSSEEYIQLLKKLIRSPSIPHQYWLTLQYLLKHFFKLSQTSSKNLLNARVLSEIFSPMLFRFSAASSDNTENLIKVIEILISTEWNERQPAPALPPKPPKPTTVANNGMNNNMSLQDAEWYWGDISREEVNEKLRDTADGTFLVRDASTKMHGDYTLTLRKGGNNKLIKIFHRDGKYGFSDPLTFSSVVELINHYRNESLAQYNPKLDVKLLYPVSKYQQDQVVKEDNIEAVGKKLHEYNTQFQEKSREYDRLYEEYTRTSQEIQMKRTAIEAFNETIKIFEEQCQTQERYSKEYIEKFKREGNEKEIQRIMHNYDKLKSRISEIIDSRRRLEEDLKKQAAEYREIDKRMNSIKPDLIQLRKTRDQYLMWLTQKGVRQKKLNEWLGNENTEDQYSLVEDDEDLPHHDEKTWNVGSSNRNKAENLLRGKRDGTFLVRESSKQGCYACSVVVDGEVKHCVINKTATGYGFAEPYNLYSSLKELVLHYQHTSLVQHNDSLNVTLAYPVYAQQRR

In the case of `CC(C)n1cnc2c(N3CCOCC3)nc(-c3ccc(OCCCC(=O)NO)cc3)nc21` [compound 82, N-hydroxy-4-(4-(9-isopropyl-6-morpholino-9H-purin-2-yl)phenoxy)butanamide], the “Microsomal Stability HLM, % of remaining parent compound” value [1, 16] was 83%, the “Microsomal Stability RLM, % of remaining parent compound” value [2, 17] was 64% and the pIC50 [3] was 5.00 to 5.70. It also gave a pIC50 [4] of less than 5.00, a pIC50 [5] of 7.00 to 8.00 and a pIC50 [6] of less than 5.00. For the same compound, the pIC50 [7] was 5.70 to 6.30.

`CCn1c(CN(C)CCCCCC(=O)NO)nc2c(N3CCOCC3)nc(-c3cccc(CO)c3)nc21` [compound 97] gave a pIC50 [8] of 6.00 to 7.00, a pIC50 [9] of 7.00 to 8.00 and a pIC50 [3] of 5.00 to 5.70. The pIC50 [4] was 5.00 to 5.70, the pIC50 [5] was 6.00 to 7.00 and the pIC50 [10] was 7.00 to 8.00. The pIC50 [7] was 5.70 to 6.30 and the pIC50 [11] was 5.00 to 5.70.

`CCC(CC)n1cnc2c(-c3cccc(OCCCC(=O)NO)c3)nc(N3CCOCC3)nc21` [compound 101, N-hydroxy-4-(3-(2-morpholino-9-(pentan-3-yl)-9H-purin-6-yl)phenoxy)butanamide] gave a pIC50 [3] greater than 6.30, a pIC50 [12] of 5.70 to 6.30 and a pIC50 [13] greater than 6.30. It also gave a pIC50 [5] of 7.00 to 8.00, a pIC50 [7] greater than 6.30 and a pIC50 [11] of 5.70 to 6.30.

With `CC(C)n1cnc2c(-c3cccc(NC(=O)CCCCCCC(=O)NO)c3)nc(N3CCOCC3)nc21` [compound 4] the “Microsomal Stability HLM, % of remaining parent compound” value [1, 16] was 36%, the “Microsomal Stability RLM, % of remaining parent compound” value [2, 17] was 42% and the pIC50 [9] was 7.00 to 8.00. The pIC50 [3] was 5.70 to 6.30 and the pIC50 [14] was 5.70 to 6.30.

With `CC(C)n1cnc2c(-c3ccc(F)c(OCCCC(=O)NO)c3)nc(N3CCOCC3)nc21` [compound 62, 4-(2-fluoro-5-(9-isopropyl-2-morpholino-9H-purin-6-yl)phenoxy)-N-hydroxybutanamide] the pIC50 [3] was 5.70 to 6.30, the pIC50 [4] was 5.00 to 5.70 and the pIC50 [5] was 7.00 to 8.00. For the same compound, the pIC50 [6] was 5.00 to 5.70, the pIC50 [7] was greater than 6.30 and the pIC50 [11] was 5.70 to 6.30.

With `CCn1cnc2c(-c3cccc(OCCCC(=O)NO)c3)nc(N3CCOCC3)nc21` [compound 45, 4-(3-(9-ethyl-2-morpholino-9H-purin-6-yl)phenoxy)-N-hydroxybutanamide] the “Microsomal Stability HLM, % of remaining parent compound” value [1, 16] was 105%, the “Microsomal Stability RLM, % of remaining parent compound” value [2, 17] was 45% and the pIC50 [9] was 6.00 to 7.00. The pIC50 [3] was 5.70 to 6.30, the pIC50 [4] was 5.70 to 6.30 and the pIC50 [13] was greater than 6.30. For the same compound, the pIC50 [5] was 7.00 to 8.00, the “Microsomal Stability MLM, % of remaining parent compound” value [15, 18] was 78% and the pIC50 [14] was 5.70 to 6.30. For the same compound, the pIC50 [6] was 5.70 to 6.30 and the pIC50 [7] was greater than 6.30.

In the case of `CCCn1cnc2c(-c3cccc(OCCCC(=O)NO)c3)nc(N3CCOCC3)nc21` [compound 43, N-hydroxy-4-(3-(2-morpholino-9-propyl-9H-purin-6-yl)phenoxy)butanamide], the “Microsomal Stability HLM, % of remaining parent compound” value [1, 16] was 97%, the “Microsomal Stability RLM, % of remaining parent compound” value [2, 17] was 54% and the pIC50 [9] was 6.00 to 7.00. For the same compound, the pIC50 [3] was 5.70 to 6.30, the pIC50 [4] was 5.70 to 6.30 and the pIC50 [13] was greater than 6.30. The pIC50 [5] was 7.00 to 8.00, the “Microsomal Stability MLM, % of remaining parent compound” value [15, 18] was 96% and the pIC50 [14] was greater than 6.30. For the same compound, the pIC50 [6] was 5.70 to 6.30 and the pIC50 [7] was greater than 6.30.

Compound `CC(C)n1ccc2c(-c3cccc(OCCCC(=O)NO)c3)nc(N3CCCC3)nc21` [compound 75, N-hydroxy-4-(3-(7-isopropyl-2-(pyrrolidin-1-yl)-7H-pyrrolo[2,3-d]pyrimidin-4-yl)phenoxy)butanamide] has a pIC50 [3] of 5.70 to 6.30, a pIC50 [4] of 5.00 to 5.70 and a pIC50 [12] of 5.70 to 6.30. For the same compound, the pIC50 [5] was 7.00 to 8.00, the pIC50 [7] was greater than 6.30 and the pIC50 [11] was 5.00 to 5.70.

With `CC(C)n1cnc2c(-c3cccc(OCCCCC(=O)NO)c3)nc(N3CCOCC3)nc21` [compound 10, N-hydroxy-5-(3-(9-isopropyl-2-morpholino-9H-purin-6-yl)phenoxy)pentanamide] the “Microsomal Stability HLM, % of remaining parent compound” value [1, 16] was 87%, the “Microsomal Stability RLM, % of remaining parent compound” value [2, 17] was 74% and the pIC50 [9] was 6.00 to 7.00. It also gave a pIC50 [3] of 5.70 to 6.30, a pIC50 [4] of 5.00 to 5.70 and a pIC50 [5] of 7.00 to 8.00. The pIC50 [10] was 5.00 to 6.00, the pIC50 [14] was 5.70 to 6.30 and the pIC50 [6] was 5.00 to 5.70. It also gave a pIC50 [7] greater than 6.30.

In the case of `CC(C)n1cnc2c(-c3cccc(OCCCC(=O)NO)c3)nc(N(C)C)nc21` [compound 31, 4-(3-(2-(dimethylamino)-9-isopropyl-9H-purin-6-yl)phenoxy)-N-hydroxybutanamide], the “Microsomal Stability HLM, % of remaining parent compound” value [1, 16] was 90%, the “Microsomal Stability RLM, % of remaining parent compound” value [2, 17] was 25% and the pIC50 [9] was 7.00 to 8.00. For the same compound, the pIC50 [3] was 5.70 to 6.30, the pIC50 [4] was 5.00 to 5.70 and the pIC50 [13] was 5.70 to 6.30. The pIC50 [5] was 7.00 to 8.00, the “Microsomal Stability MLM, % of remaining parent compound” value [15, 18] was 53% and the pIC50 [14] was 5.70 to 6.30. The pIC50 [6] was 5.70 to 6.30 and the pIC50 [7] was greater than 6.30.

In the case of `COc1ccc2c(c1)[C@]13CCCC[C@@H]1[C@H](C2)N(C)CC3` [Dextromethorphan, dextromethorphan, reference compound], the “Microsomal Stability HLM, % of remaining parent compound” value ([1]; human liver microsomes 0.5 mg/mL, compound 5 μM, 30 or 45 min) was 65%, the “Microsomal Stability RLM, % of remaining parent compound” value ([2]; rat liver microsomes 0.5 mg/mL, compound 5 μM, 45 min) was 5% and the “Microsomal Stability MLM, % of remaining parent compound” value ([15]; mouse liver microsomes 0.5 mg/mL, compound 5 μM, 30 min) was 19%.

`CC(C)n1ccc2c(-c3cccc(OCCCC(=O)NO)c3)nc(N3CCOCC3)nc21` [compound 76, N-hydroxy-4-(3-(7-isopropyl-2-morpholino-7H-pyrrolo[2,3-d]pyrimidin-4-yl)phenoxy)butanamide] gave a pIC50 [9] of 7.00 to 8.00, a pIC50 [3] of 5.70 to 6.30 and a pIC50 [4] of 5.70 to 6.30. It also gave a pIC50 [12] greater than 6.30, a pIC50 [13] greater than 6.30 and a pIC50 [5] of 7.00 to 8.00. The pIC50 [14] was 5.70 to 6.30, the pIC50 [7] was greater than 6.30 and the pIC50 [11] was 5.70 to 6.30.

`CCn1c(CN(C)Cc2ccc(C(=O)NO)cc2)nc2c(N3CCOCC3)nc(-c3ccc(OC)nc3)nc21` [compound 96, 4-((((9-ethyl-2-(6-methoxypyridin-3-yl)-6-morpholino-9H-purin-8-yl)methyl)(methyl)amino)methyl)-N-hydroxybenzamide] gave a pIC50 [3] of 5.70 to 6.30, a pIC50 [4] of 5.00 to 5.70 and a pIC50 [12] of 5.70 to 6.30. For the same compound, the pIC50 [13] was 5.70 to 6.30, the pIC50 [5] was 6.00 to 7.00 and the pIC50 [14] was 5.00 to 5.70. The pIC50 [6] was 5.70 to 6.30, the pIC50 [7] was 5.70 to 6.30 and the pIC50 [11] was 5.70 to 6.30.
